Among the data in US11713338B2, “Cyclic peptides multimers targeting α-4-β-7 integrin” (priority 2016, dated 2023) are IC50 values, retold here.

The experiment addresses T1, integrin α4β7 (RPMI8866 human cells adhering to MAdCAM-1) (Homo sapiens, UniProt P13612+P26010).
T1 construct: RMP18866 cells, which express integrin α4β7; host or cells: RPMI8866
T1 sequence (P13612 34-1032): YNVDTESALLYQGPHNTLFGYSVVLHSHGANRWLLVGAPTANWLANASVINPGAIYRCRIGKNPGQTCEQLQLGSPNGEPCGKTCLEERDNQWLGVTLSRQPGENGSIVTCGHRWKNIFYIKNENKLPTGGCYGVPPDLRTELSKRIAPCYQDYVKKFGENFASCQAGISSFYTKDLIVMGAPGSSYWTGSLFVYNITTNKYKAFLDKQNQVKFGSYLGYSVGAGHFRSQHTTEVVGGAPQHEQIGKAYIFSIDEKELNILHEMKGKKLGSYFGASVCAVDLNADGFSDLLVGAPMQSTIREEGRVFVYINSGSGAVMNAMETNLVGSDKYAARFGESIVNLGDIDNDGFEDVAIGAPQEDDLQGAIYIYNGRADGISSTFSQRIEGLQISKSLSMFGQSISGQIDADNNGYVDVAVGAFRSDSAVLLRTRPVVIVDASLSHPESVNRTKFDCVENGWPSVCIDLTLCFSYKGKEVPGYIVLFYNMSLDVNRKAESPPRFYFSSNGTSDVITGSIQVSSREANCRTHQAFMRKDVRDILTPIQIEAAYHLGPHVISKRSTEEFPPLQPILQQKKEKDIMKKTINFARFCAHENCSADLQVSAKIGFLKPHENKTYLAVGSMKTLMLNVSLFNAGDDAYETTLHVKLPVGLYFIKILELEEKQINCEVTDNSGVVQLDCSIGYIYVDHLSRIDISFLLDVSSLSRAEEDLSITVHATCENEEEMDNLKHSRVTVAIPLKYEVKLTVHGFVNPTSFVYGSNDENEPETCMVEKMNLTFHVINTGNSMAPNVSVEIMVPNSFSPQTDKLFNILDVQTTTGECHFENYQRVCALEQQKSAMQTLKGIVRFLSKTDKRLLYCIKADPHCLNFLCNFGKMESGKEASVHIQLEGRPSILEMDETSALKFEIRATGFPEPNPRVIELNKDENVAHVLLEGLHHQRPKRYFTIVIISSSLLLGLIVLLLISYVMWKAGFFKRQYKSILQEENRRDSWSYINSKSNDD
T1 sequence (P26010 20-798): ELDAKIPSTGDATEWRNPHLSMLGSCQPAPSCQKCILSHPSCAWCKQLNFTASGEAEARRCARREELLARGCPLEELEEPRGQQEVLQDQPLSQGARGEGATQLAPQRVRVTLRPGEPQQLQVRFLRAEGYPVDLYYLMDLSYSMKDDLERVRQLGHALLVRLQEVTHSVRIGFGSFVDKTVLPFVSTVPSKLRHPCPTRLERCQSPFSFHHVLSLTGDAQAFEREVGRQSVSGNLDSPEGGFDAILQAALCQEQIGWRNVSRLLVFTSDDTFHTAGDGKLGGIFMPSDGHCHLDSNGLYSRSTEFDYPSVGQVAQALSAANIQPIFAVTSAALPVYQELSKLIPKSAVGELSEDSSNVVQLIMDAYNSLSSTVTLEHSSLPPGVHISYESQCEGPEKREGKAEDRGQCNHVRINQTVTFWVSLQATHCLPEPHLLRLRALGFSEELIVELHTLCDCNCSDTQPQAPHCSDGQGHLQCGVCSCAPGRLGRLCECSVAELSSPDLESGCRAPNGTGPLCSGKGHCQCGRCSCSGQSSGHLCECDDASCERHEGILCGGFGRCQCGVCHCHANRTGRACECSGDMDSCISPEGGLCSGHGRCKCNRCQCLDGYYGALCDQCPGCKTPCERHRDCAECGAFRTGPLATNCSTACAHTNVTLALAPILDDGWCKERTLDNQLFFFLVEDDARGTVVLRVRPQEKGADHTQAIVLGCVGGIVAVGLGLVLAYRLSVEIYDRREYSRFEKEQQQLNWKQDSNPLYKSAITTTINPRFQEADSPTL
Description: Integrin α4β7-MAdCAM cell adhesion assay (RPMI8866 cells). To be noted: RPMI8866 cells adhering to MAdCAM; read-out: RPMI8866 Adhesion α4β7/MAdCAM IC50. The format is cell-based. As to the method:
Integrin α4β7-MAdCAM Cell Adhesion Assay
RPMI8866 cells were resuspended at 10 million cells/ml in PBS containing […] and incubated at 37° C. for 30 min in a 50 ml tube. […] The plate was emptied by inverting and blotting on paper towels and washed manually twice with PBS. 100 μl PBS was then added to each well. […] To calculate the dose response, the fluorescence value of control wells not containing cells was subtracted from each test well.

Structures are written as SMILES.

For the molecule `CC(C)C[C@@H]1NC(=O)c2ccc(-c3ccc(N4CCN(C(=O)CC[C@@H](N)C(=O)N5CCN(c6ccc(-c7ccc8cc7CNC(=O)[C@@H]7CCCN7[C@H](C(=O)NC(C)(C)C)[C@H](C)NC(=O)[C@H]([C@@H](C)O)NC(=O)[C@H](CC(=O)O)NC(=O)[C@H](CC(C)C)NC8=O)cc6)CC5)CC4)cc3)c(c2)CNC(=O)[C@@H]2CCCN2[C@H](C(=O)NC(C)(C)C)[C@H](C)NC(=O)[C@H]([C@@H](C)O)NC(=O)[C@H](CC(=O)O)NC1=O` [Compound 495], the IC50 was 30 nM.
With `CC(C)C[C@@H]1NC(=O)c2ccc(-c3ccc(N4CCN(C(=O)Cc5ccccc5C(=O)N5CCN(c6ccc(-c7ccc8cc7CNC(=O)[C@@H]7CCCN7[C@H](C(=O)NC(C)(C)C)[C@H](C)NC(=O)[C@H]([C@@H](C)O)NC(=O)[C@H](CC(=O)O)NC(=O)[C@H](CC(C)C)NC8=O)cc6)CC5)CC4)cc3)c(c2)CNC(=O)[C@@H]2CCCN2[C@H](C(=O)NC(C)(C)C)[C@H](C)NC(=O)[C@H]([C@@H](C)O)NC(=O)[C@H](CC(=O)O)NC1=O` [Compound 496], the IC50 was determined as 41 nM.
The figure for `CC(C)C[C@@H]1NC(=O)c2ccc(-c3ccc(N4CCN(C(=O)c5cccc(C(=O)N6CCN(c7ccc(-c8ccc9cc8CNC(=O)[C@@H]8CCCN8[C@H](C(=O)NC(C)(C)C)[C@H](C)NC(=O)[C@H]([C@@H](C)O)NC(=O)[C@H](CC(=O)O)NC(=O)[C@H](CC(C)C)NC9=O)cc7)CC6)c5)CC4)cc3)c(c2)CNC(=O)[C@@H]2CCCN2[C@H](C(=O)NC(C)(C)C)[C@H](C)NC(=O)[C@H]([C@@H](C)O)NC(=O)[C@H](CC(=O)O)NC1=O` [Compound 497] is 25 nM.
The figure for `CC(C)C[C@@H]1NC(=O)c2ccc(-c3ccc(N4CCN(C(=O)CN(C)CC(=O)N5CCN(c6ccc(-c7ccc8cc7CNC(=O)[C@@H]7CCCN7[C@H](C(=O)NC(C)(C)C)[C@H](C)NC(=O)[C@H]([C@@H](C)O)NC(=O)[C@H](CC(=O)O)NC(=O)[C@H](CC(C)C)NC8=O)cc6)CC5)CC4)cc3)c(c2)CNC(=O)[C@@H]2CCCN2[C@H](C(=O)NC(C)(C)C)[C@H](C)NC(=O)[C@H]([C@@H](C)O)NC(=O)[C@H](CC(=O)O)NC1=O` [Compound 501] is 38 nM.
Take `CC(C)C[C@@H]1NC(=O)c2ccc(-c3ccc(N4CCN(C(=O)CCOCCOCCOCCOCCOCCOCCOCCOCCOCCOCCOCCOCCOCCC(=O)N5CCN(c6ccc(-c7ccc8cc7CNC(=O)[C@@H]7CCCN7[C@H](C(=O)NC(C)(C)C)[C@H](C)NC(=O)[C@H]([C@@H](C)O)NC(=O)[C@H](CC(=O)O)NC(=O)[C@H](CC(C)C)NC8=O)cc6)CC5)CC4)cc3)c(c2)CNC(=O)[C@@H]2CCCN2[C@H](C(=O)NC(C)(C)C)[C@H](C)NC(=O)[C@H]([C@@H](C)O)NC(=O)[C@H](CC(=O)O)NC1=O` [Compound 504]: the IC50 came out at 42 nM.
The same measure for `CC(C)C[C@@H]1NC(=O)c2ccc(-c3ccc(N4CCN(C(=O)COCCOCCOCC(=O)N5CCN(c6ccc(-c7ccc8cc7CNC(=O)[C@@H]7CCCN7[C@H](C(=O)NC(C)(C)C)[C@H](C)NC(=O)[C@H]([C@@H](C)O)NC(=O)[C@H](CC(=O)O)NC(=O)[C@H](CC(C)C)NC8=O)cc6)CC5)CC4)cc3)c(c2)CNC(=O)[C@@H]2CCCN2[C@H](C(=O)NC(C)(C)C)[C@H](C)NC(=O)[C@H]([C@@H](C)O)NC(=O)[C@H](CC(=O)O)NC1=O` [Compound 508]: 46 nM; for `CC(C)C[C@@H]1NC(=O)c2ccc(-c3ccc(N4CCN(C(=O)CCOCCOCCOCCOCCOCCC(=O)N5CCN(c6ccc(-c7ccc8cc7CNC(=O)[C@@H]7CCCN7[C@H](C(=O)NC(C)(C)C)[C@H](C)NC(=O)[C@H]([C@@H](C)O)NC(=O)[C@H](CC(=O)O)NC(=O)[C@H](CC(C)C)NC8=O)cc6)CC5)CC4)cc3)c(c2)CNC(=O)[C@@H]2CCCN2[C@H](C(=O)NC(C)(C)C)[C@H](C)NC(=O)[C@H]([C@@H](C)O)NC(=O)[C@H](CC(=O)O)NC1=O` [Compound 509]: 31 nM; for `CC(C)C[C@@H]1NC(=O)c2ccc(-c3ccc(N4CCN(C(=O)CCOCCOCCOCCOCCOCCOCCOCCC(=O)N5CCN(c6ccc(-c7ccc8cc7CNC(=O)[C@@H]7CCCN7[C@H](C(=O)NC(C)(C)C)[C@H](C)NC(=O)[C@H]([C@@H](C)O)NC(=O)[C@H](CC(=O)O)NC(=O)[C@H](CC(C)C)NC8=O)cc6)CC5)CC4)cc3)c(c2)CNC(=O)[C@@H]2CCCN2[C@H](C(=O)NC(C)(C)C)[C@H](C)NC(=O)[C@H]([C@@H](C)O)NC(=O)[C@H](CC(=O)O)NC1=O` [Compound 510]: 87 nM.
Turning to `CC(C)C[C@@H]1NC(=O)c2ccc(-c3ccc(N4CCN(C(=O)Cc5ccc(CC(=O)N6CCN(c7ccc(-c8ccc9cc8CNC(=O)[C@@H]8CCCN8[C@H](C(=O)NC(C)(C)C)[C@H](C)NC(=O)[C@H]([C@@H](C)O)NC(=O)[C@H](CC(=O)O)NC(=O)[C@H](CC(C)C)NC9=O)cc7)CC6)cc5)CC4)cc3)c(c2)CNC(=O)[C@@H]2CCCN2[C@H](C(=O)NC(C)(C)C)[C@H](C)NC(=O)[C@H]([C@@H](C)O)NC(=O)[C@H](CC(=O)O)NC1=O` [Compound 516], the IC50 worked out at 98 nM.
Consider `CC(C)C[C@@H]1NC(=O)[C@H]2CCCCN2C(=O)[C@H](Cc2ccc(CNC(=O)CCCCC(=O)NCc3ccc(C[C@@H]4NC(=O)[C@@H]5CCCN5[C@H](C(=O)NC(C)(C)C)[C@H](C)NC(=O)[C@H]([C@@H](C)O)NC(=O)[C@H](CC(=O)O)NC(=O)[C@H](CC(C)C)NC(=O)[C@H]5CCCCN5C4=O)cc3)cc2)NC(=O)[C@@H]2CCCN2[C@H](C(=O)NC(C)(C)C)[C@H](C)NC(=O)[C@H]([C@@H](C)O)NC(=O)[C@H](CC(=O)O)NC1=O` [Compound 523], for which the IC50 turned out to be 434 nM.
The figure for `CC(C)C[C@@H]1NC(=O)[C@H]2CCCCN2C(=O)[C@H](Cc2ccc(CNC(=O)CCCCCC(=O)NCc3ccc(C[C@@H]4NC(=O)[C@@H]5CCCN5[C@H](C(=O)NC(C)(C)C)[C@H](C)NC(=O)[C@H]([C@@H](C)O)NC(=O)[C@H](CC(=O)O)NC(=O)[C@H](CC(C)C)NC(=O)[C@H]5CCCCN5C4=O)cc3)cc2)NC(=O)[C@@H]2CCCN2[C@H](C(=O)NC(C)(C)C)[C@H](C)NC(=O)[C@H]([C@@H](C)O)NC(=O)[C@H](CC(=O)O)NC1=O` [Compound 524] is 447 nM; for `CC(C)C[C@@H]1NC(=O)[C@H]2Cc3ccccc3CN2C(=O)[C@H](Cc2cccc(CNC(=O)CCCCCCC(=O)NCc3cccc(C[C@@H]4NC(=O)[C@@H]5CCCN5[C@H](C(=O)NC(C)(C)C)[C@H](C)NC(=O)[C@H]([C@@H](C)O)NC(=O)[C@H](CC(=O)O)NC(=O)[C@H](CC(C)C)NC(=O)[C@H]5Cc6ccccc6CN5C4=O)c3)c2)NC(=O)[C@@H]2CCCN2[C@H](C(=O)NC(C)(C)C)[C@H](C)NC(=O)[C@H]([C@@H](C)O)NC(=O)[C@H](CC(=O)O)NC1=O` [Compound 528] it is 47 nM.
The same measure for `CC(C)C[C@@H]1NC(=O)[C@H]2Cc3ccccc3CN2C(=O)[C@H](Cc2cccc(CNC(=O)CCCCCCCC(=O)NCc3cccc(C[C@@H]4NC(=O)[C@@H]5CCCN5[C@H](C(=O)NC(C)(C)C)[C@H](C)NC(=O)[C@H]([C@@H](C)O)NC(=O)[C@H](CC(=O)O)NC(=O)[C@H](CC(C)C)NC(=O)[C@H]5Cc6ccccc6CN5C4=O)c3)c2)NC(=O)[C@@H]2CCCN2[C@H](C(=O)NC(C)(C)C)[C@H](C)NC(=O)[C@H]([C@@H](C)O)NC(=O)[C@H](CC(=O)O)NC1=O` [Compound 529]: 47 nM.
